21 compounds from ChEMBL document CHEMBL1126445, “Acetylcholine-releasing agents as cognition enhancers. Structure-activity relationships of pyridinyl pendant groups on selected core structures” (1992) can be followed below.

This experiment is filed under the species Rattus norvegicus. Nature of the experiment: Compound was evaluated for its ability to enhance the release of acetylcholine in vitro by using [3H]choline in rat brain slice superfusion system. It is filed as functional.
For `O=C1c2cccc3cccc(c23)C1(Cc1ccccn1)Cc1ccccn1`, the Release turned out to be 40%.

Turning to `O=C1N(c2ccccc2)c2ccccc2C1(Cc1cccnc1)Cc1cccnc1`, the Release was 38%.

In the case of `O=C1CCc2ccccc2C1(Cc1ccccn1)Cc1ccccn1`, the Release was found to be 25%.

Consider `C=C1c2cccc3cccc(c23)C1(Cc1cccnc1)Cc1cccnc1`, for which the Release is on record as 21%.

In the case of `c1ccc2c(c1)Oc1ccccc1C2(Cc1ccncc1)Cc1ccncc1`, the Release stood at 91%.

On to `OC1c2cccc3cccc(c23)C1(Cc1ccccn1)Cc1ccccn1` (stereo unspecified), for which the Release stood at 53%.

Take `O=C1N(c2ccccc2)c2ccccc2C1(Cc1ccccn1)Cc1ccccn1`: the Release is recorded as 22%.

Consider `c1ccc(CC2(Cc3ccccn3)c3ccccc3Oc3ccccc32)nc1`, for which the Release is given as 24%.

With `c1cncc(CC2(Cc3cccnc3)c3ccccc3Oc3ccccc32)c1`, the Release amounted to 59%.

On to `OC1c2cccc3cccc(c23)C1(Cc1ccncc1)Cc1ccncc1` (stereo unspecified), for which the Release worked out at 15%.

On to `O=C1c2cccc3cccc(c23)C1(Cc1cccnc1)Cc1cccnc1`, for which the Release was determined as 7%.

As for `C=C1c2cccc3cccc(c23)C1(Cc1ccncc1)Cc1ccncc1`, the Release is recorded as 97%.

Regarding `OC1c2cccc3cccc(c23)C1(Cc1cccnc1)Cc1cccnc1` (stereo unspecified), the Release was determined as 29%.

For `C=C1c2cccc3cccc(c23)C1(Cc1ccccn1)Cc1ccccn1`, the Release is listed as 25%.

With `O=C1CCc2ccccc2C1(Cc1ccncc1)Cc1ccncc1`, the Release came out at 36%.

With `O=C1CCc2ccccc2C1(Cc1cccnc1)Cc1cccnc1`, the Release came to 11%.

As for `O=C1c2cccc3cccc(c23)C1(Cc1ccncc1)Cc1ccncc1`, the Release stood at 70%.

For `c1ccc2c(c1)Sc1ccccc1C2(Cc1ccncc1)Cc1ccncc1`, the Release amounted to 42%.

Take `c1cncc(CC2(Cc3cccnc3)c3ccccc3Sc3ccccc32)c1`: the Release worked out at 79%.

`c1ccc(CC2(Cc3ccccn3)c3ccccc3Sc3ccccc32)nc1`: the Release was 47%.

For `O=C1N(c2ccccc2)c2ccccc2C1(Cc1ccncc1)Cc1ccncc1` [LINOPIRDINE], the Release is given as 100%.
